System: 266 human PDZ domains (PDZome)
Experiment: Holdup assay (chromatographic retention, PDZome-binding profile, BI)
Parameters: key to maximal BI / Max BI / BI: binding intensity: 0.00 = no binding, 1.00 = maximal binding
Protocol: The holdup method is a chromatographic approach in solution developed in our group that allows to measure the binding strength of a peptide, attached to a resin, against a library of domains of a same family. We initially proposed this method to explore the interaction between PBM peptides and the human PDZ domains. Briefly, a soluble cell lysate containing individually overexpressed PDZ domain is incubated until equilibrium with a calibrated amount of streptavidin-resin saturated either with the target biotinylated PBM peptide or with biotin as a reference. The flow-throughs containing the unbound protein fraction are recovered by filtration and loaded on a capillary electrophoresis instrument to quantify the amount of remaining free PDZ. The stronger the steady-state depletion of the PDZ domain in the flow-through as compared to the reference, the stronger the PDZ/PBM binding interaction. The assay is particularly suited to quantitatively evaluate and compare large numbers of interactions. This method delivers, for each PBM/PDZ pair, a "binding intensity" (BI), whose value can in principle range from 0.00 (no binding event detected) to 1.00 (maximal binding event). The approach has been automated and the human PDZ library was recently extended to the complete 266 PDZ domains known in human proteome. […] The high accuracy and efficiency of the holdup assay have been validated previously. Very recently, a manual version of the holdup assay with purified samples and using widespread benchtop equipment has been implemented and has proven to be reliable.
The 266 PDZ domains that constitute the PDZ library (“PDZome V.2”) used in the present work were produced using constructs with optimized boundaries as described previously. All the genes were fused to Maltose-Binding Protein (MBP) or Thioredoxin (THR) tag often used to facilitate the solubilisation of the over-expressed protein, by cloning them into the pETG41A or pETG20A plasmid, respectively. […] The expressed tag-PDZ concentrations were quantified using capillary gel electrophoresis and cell lysates were diluted to reach approximately 5 μM tag-PDZ before freezing in 96-well plates. A detailed protocol of the PDZ library production, expression and benchmarking can be found in [32]. PDZ domains are named according to their originating protein name followed by the PDZ number (e.g. NHERF1-1 as the first PDZ domain of the NHERF1 protein).
The holdup assay was performed on a Tecan freedom Evo200 robot with 384-well plates in singlicate for the three 11-mer PTEN variants and the 13-mer PTEN peptide as described in [31, 32]. Briefly, prior to interaction assay, 2.5 μL of streptavidin resin was saturated in each well with 20 μL of biotinylated PBM peptides (42 μM) and then washed twice with an excess of free biotin, while the reference resin was incubated only with biotin. Right before the holdup experiment, the PDZ library was spiked with an internal standard of lysozyme. Then, the biotin- or PBM-saturated resin was incubated, each in a distinct well of a 384-well plate, with complete cell lysates diluted so that the concentration of the tag-PDZ present in the crude extract is adjusted at 4 μM. After a sufficient time to reach complex equilibrium (15 min.), a fast and mild filtration step is performed and the tag-PDZ concentrations were measured by capillary electrophoresis instrument (LabChip GXII, PerkinElmer, Massachusets, USA). Standard markers were used to convert migration time into molecular weight on the LabChip software and inappropriate molecular weight markers were corrected or excluded.
Holdup data quality check and processing […]

For `CC[C@H](C)[C@H](NC(=O)[C@H](CCC(N)=O)NC(=O)[C@@H](NC(=O)[C@H](Cc1c[nH]cn1)NC(=O)[C@H](CCC(N)=O)NC(=O)[C@H](CC(=O)O)NC(=O)[C@H](CCC(=O)O)NC(=O)[C@H](CC(=O)O)NC(=O)CCC(=O)NCCCOCCOCCOCCCNC(=O)CCCC[C@@H]1SC[C@@H]2NC(=O)N[C@@H]21)[C@@H](C)O)C(=O)N[C@H](C(=O)N[C@@H](CCCCNC(C)=O)C(=O)N[C@H](C(=O)O)C(C)C)[C@@H](C)O` [PTEN_Ac], the “number of additional new PDZ partners not detected for PTEN_11” value (BI>0.20, compared with PTEN_11) was “at least 20”, the BI (PDZ domain MPDZ-2) was 0.353 and the BI (PDZ domain MPDZ-3) was 0.002. For the same molecule, the BI (PDZ domain MPDZ-4) was 0.029, the BI (PDZ domain MPDZ-5) was -0.014 and the BI (PDZ domain MPDZ-6) was -0.058. The BI (PDZ domain MPDZ-7) was 0.624, the BI (PDZ domain MPDZ-8) was 0.172 and the BI (PDZ domain MPDZ-9 (gene NHERF2, 2)) was 0.016. It also gave a BI (PDZ domain MPDZ-12) of 0.019, a BI (PDZ domain MPDZ-13) of 0.351 and a BI (PDZ domain MPP1-1) of -0.054. It also gave a BI (PDZ domain MPP3-1) of -0.063, a BI (PDZ domain MPP4-1) of -0.043 and a BI (PDZ domain MPP5-1) of -0.048. The BI (PDZ domain MPP6-1) was -0.03, the BI (PDZ domain MPP7-1) was -0.045 and the BI (PDZ domain NHERF1-2) was 0.046. The BI (PDZ domain NHERF3-1) was 0.45, the BI (PDZ domain NHERF3-2) was 0.105 and the BI (PDZ domain NHERF3-3) was 0.021. The BI (PDZ domain NHERF3-4) was -0.017, the BI (PDZ domain NHERF4-1) was -0.007 and the BI (PDZ domain NHERF4-2) was 0.014. It also gave a BI (PDZ domain NHERF4-3) of -0.031, a BI (PDZ domain NHERF4-4) of -0.03 and a BI (PDZ domain NOS1-1) of 0.106. The BI (PDZ domain PARD3-1, first of two lines so named (r186)) was 0.035, the BI (PDZ domain PARD3-1, second of two lines so named (r187)) was -0.073 and the BI (PDZ domain PARD3-2) was 0.074. For the same molecule, the BI (PDZ domain PARD3B-1) was -0.205, the BI (PDZ domain PARD3B-2) was -0.04 and the BI (PDZ domain PARD3B-3) was -0.007. The BI (PDZ domain PARD6A-1) was 0.007, the BI (PDZ domain PARD6G-1) was -0.034 and the BI (PDZ domain PCLO-1) was -0.088. For the same molecule, the BI (PDZ domain PDLIM1-1) was -0.087, the BI (PDZ domain PDLIM3-1) was -0.026 and the BI (PDZ domain PDLIM4-1) was -0.03. For the same molecule, the BI (PDZ domain PDLIM5-1) was -0.022, the BI (PDZ domain PDLIM7-1) was -0.025 and the BI (PDZ domain PDZD2-1) was -0.095. The BI (PDZ domain PDZD2-2) was 0.195, the BI (PDZ domain PDZD2-3) was 0.017 and the BI (PDZ domain PDZD2-5) was -0.091. The BI (PDZ domain PDZD2-6) was -0.026, the BI (PDZ domain PDZD4-1) was 0.085 and the BI (PDZ domain PDZD7-1) was -0.051. It also gave a BI (PDZ domain PDZD7-3) of 0.901, a BI (PDZ domain PDZD8-1) of -0.202 and a BI (PDZ domain PDZD9-1) of -0.019. It also gave a BI (PDZ domain PDZD11-1) of -0.017, a BI (PDZ domain PDZRN3-1) of -0.019 and a BI (PDZ domain PDZRN3-2) of 0.016. It also gave a BI (PDZ domain PDZRN4-1) of -0.064, a BI (PDZ domain PDZRN4-2) of 0.099 and a BI (PDZ domain PICK1-1) of 0.052. It also gave a BI (PDZ domain PPP1R9A-1) of 0.066, a BI (PDZ domain PPP1R9B-1) of -0.044 and a BI (PDZ domain PREX1-1) of -0.014. The BI (PDZ domain PREX2-2) was 0.096, the BI (PDZ domain PRX-1) was -0.021 and the BI (PDZ domain PSCDBP-1) was -0.005. For the same molecule, the BI (PDZ domain PSMD9-1) was -0.007, the BI (PDZ domain PTPN3-1) was 0.05 and the BI (PDZ domain PTPN4-1) was 0.02. For the same molecule, the BI (PDZ domain PTPN13-1) was -0.024, the BI (PDZ domain PTPN13-3) was -0.028 and the BI (PDZ domain PTPN13-5) was -0.046. It also gave a BI (PDZ domain RADIL-1) of 0.522, a BI (PDZ domain RAPGEF2-1) of -0.076 and a BI (PDZ domain RAPGEF6-1) of 0.035. It also gave a BI (PDZ domain RGS3-1) of -0.001, a BI (PDZ domain RGS12-1) of 0.033 and a BI (PDZ domain RHPN2-1) of -0.044. The BI (PDZ domain RIMS1-1) was -0.02, the BI (PDZ domain RIMS2-1) was -0.022 and the BI (PDZ domain SCRIB-2) was 0.163. For the same molecule, the BI (PDZ domain SCRIB-4) was 0.058, the BI (PDZ domain SDCBP2-2) was -0.013 and the BI (PDZ domain SDCBP-2) was -0.05. The BI (PDZ domain SHANK1-1) was 0.152, the BI (PDZ domain SHANK2-1) was 0.209 and the BI (PDZ domain SHANK3-1) was 0.235. For the same molecule, the BI (PDZ domain SHROOM2-1) was -0.072, the BI (PDZ domain SHROOM3-1) was -0.048 and the BI (PDZ domain SHROOM4-1) was -0.073. It also gave a BI (PDZ domain SIPA1L2-1) of -0.001, a BI (PDZ domain SIPA1L3-1) of -0.046 and a BI (PDZ domain SNTA1-1) of 0.41. It also gave a BI (PDZ domain SNTB1-1) of 0.548, a BI (PDZ domain SNTG1-1) of 0.345 and a BI (PDZ domain SNTG2-1) of -0.077. The BI (PDZ domain STXB4-1) was -0.072, the BI (PDZ domain SYNJ2BP-1) was 0.023 and the BI (PDZ domain SYNP2-1) was 0.005. For the same molecule, the BI (PDZ domain SYNPO2L-1) was 0.063, the BI (PDZ domain TIAM1-1) was -0.072 and the BI (PDZ domain TIAM2-1) was -0.008. For the same molecule, the BI (PDZ domain TJP1-1) was 0.198, the “number of PDZ domains identified as potential binders (BI>0.20)” value (holdup, singlicate, threshold BI>0.20) was 43 PDZ domains and the “maximal BI” value (holdup, singlicate, highest BI in the PDZome profile, BI standard error ~0.07) was 0.90. The “binding of several PDZ domains (in words)” value (including several ones from MAGI and NHERF) was “detectably bound”, the “Max BI” value (maximum over PDZome) was 0.90 and the “number of partners detected for PTEN_Ac and not for PTEN_KR” value (over a total of 43) was 15.

Source: article PMC7774954, “Interactomic affinity profiling by holdup assay: Acetylation and distal residues impact the PDZome-binding specificity of PTEN phosphatase” (PLoS ONE, 2020)
